Assay results as given in ChEMBL document CHEMBL1629426, “7-Nor-ergosterolide, a pentalactone-containing norsteroid and related steroids from the marine-derived endophytic Aspergillus ochraceus EN-31” (J Nat Prod, 2010).
Values after ≈ are worked out from the molar mass of the structure shown. Active and inactive are the calls of the source. The calls are words filed in the database; no cut-off is given here.

Columns and labels:
Staphylococcus aureus = assay: Antimicrobial activity against Staphylococcus aureus by agar diffusion method; type: functional, organism-based
Escherichia coli = assay: Antimicrobial activity against Escherichia coli by agar diffusion method; type: functional, organism-based
Aspergillus niger = assay: Antimicrobial activity against Aspergillus niger by agar diffusion method; type: functional, organism-based
SMMC-7721 = assay: Cytotoxicity against human SMMC7721 cells by colorimetric assay; type: functional, cell-based
SW1990 = assay: Cytotoxicity against human SW1990 cells by colorimetric assay; type: functional, cell-based
NCI-H460 = assay: Cytotoxicity against human NCI-H460 cells by colorimetric assay; type: functional, cell-based

Structure (SMILES) | Activity (Staphylococcus aureus) | Activity (Escherichia coli) | Activity (Aspergillus niger) | IC50 (SMMC-7721) [µg/mL] | IC50 (SW1990) [µg/mL] | IC50 (NCI-H460) [µg/mL]
C=C(CC[C@@H](C)[C@H]1CC[C@H]2C3=C(CC[C@]12C)[C@@]1(C)CC[C@H](O)C[C@@H]1CC3=O)C(C)C | inactive | inactive | inactive |  |  | 
C=C(CC[C@@H](C)[C@H]1CC[C@H]2C3=C([C@H](O)C[C@]12C)[C@@]1(C)CC[C@H](O)C[C@@H]1CC3=O)C(C)C | inactive | inactive | inactive | 28 (≈ 65.3 µM) |  | 
C=C(CC[C@@H](C)[C@H]1CC[C@H]2C3=C(CC[C@]12C)[C@@]1(C)CC[C@H](O)C[C@@H]1C(=O)O3)C(C)C | inactive | inactive | inactive | 7 (≈ 16.9 µM) | 28 (≈ 67.5 µM) | 5 (≈ 12.1 µM)
